Results as given in patent US7598261B2, “Spirocyclic heterocyclic derivatives and methods of their use” (Adolor Corporation, priority 2005, dated 2009).

How the values were obtained:
[1] = biological target: T1, cloned human δ opioid receptor (Homo sapiens, UniProt P41143); experiment: Receptor-mediated [35S]GTPγS binding (agonist potency); format: biochemical; settings: stimulation of [35S]GTPγS binding, membranes with cloned human δ opioid receptor; read-out: in vitro δ agonist activity (EC50)
T1 construct: expressed in transfected cells; host or cells: CHO cells (membrane preparations)
T1 sequence (P41143 whole entry): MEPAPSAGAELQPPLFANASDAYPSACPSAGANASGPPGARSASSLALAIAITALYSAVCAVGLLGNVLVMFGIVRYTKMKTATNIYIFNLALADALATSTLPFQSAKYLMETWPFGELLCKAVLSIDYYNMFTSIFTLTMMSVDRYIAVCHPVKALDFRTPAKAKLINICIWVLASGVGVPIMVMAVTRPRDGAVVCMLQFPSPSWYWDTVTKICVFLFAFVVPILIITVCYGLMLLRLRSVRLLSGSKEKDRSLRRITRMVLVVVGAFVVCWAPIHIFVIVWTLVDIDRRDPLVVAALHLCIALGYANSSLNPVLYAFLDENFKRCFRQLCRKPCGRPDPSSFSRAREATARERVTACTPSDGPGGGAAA
Procedure: The potency and efficacy of compounds at each of the receptors are assessed by modifications of the methods of Selley et al., 1997 and Traynor and Nahorski, 1995 using receptor-mediated [^35S]GTPγS binding in the same membrane preparations used to measure receptor binding. Assays are carried out in 96-well FlashPlates® (Perkin Elmer Life Sciences, Inc, Boston, Mass.). Membranes prepared from CHO cells expressing the appropriate receptor (50-100 μg of protein) are added to assay mixtures containing agonist with or without antagonists, 100 pM [^35S]GTPγS (approx. 100,000 dpm), 3.0 μM GDP, 75 mM NaCl, 15 mM MgCl2, 1.0 mM ethylene glycol-bis(β-aminoethyl ether)-N,N,N′,N′-tetracetic acid, 1.1 mM dithiothreitol, 10 μg/mL leupeptin, 10 μg/mL pepstatin A, 200 μg/mL bacitracin, and 0.5 μg/mL aprotinin in 50 mM Tris-HCl buffer, pH 7.8. After incubation at room temperature for one hour, the plates are sealed, centrifuged at 800×g in a swinging bucket rotor for 5 min and bound radioactivity determined with a TopCount microplate scintillation counter (Packard Instrument Co., Meriden, Conn.).
EC50 values for agonists are determined from nonlinear regression fits of 8- or 12-point titration curves to the 4-parameter equation for a sigmoidal dose-response with a slope factor of 1.0 using GraphPad Prism® version 3.00 for Windows (GraphPad Software, San Diego, Calif.).
The potencies of the compounds were determined by testing the ability of a range of concentrations of each compound to inhibit the binding of the non-selective opioid antagonist, [^3H]diprenorphine, to the cloned human μ, κ, and δ opioid receptors, expressed in separate cell lines. […] These compounds display high selectivity δ/κ and δ/μ (at least 10-fold). The potencies of the agonists were assessed by their abilities to stimulate [^35S]GTPγS binding to membranes containing the cloned human δ opioid receptors.

[2] = biological target: T1, cloned human δ opioid receptor; experiment: [3H]diprenorphine receptor binding, δ opioid receptor; settings: inhibition of [3H]diprenorphine binding, read-out: affinity (Ki value), delta opioid receptor
Procedure: (§1) The potencies of the compounds listed in Table 2 were determined by testing the ability of a range of concentrations of each compound to inhibit the binding of the non-selective opioid antagonist, [^3H]diprenorphine, to the cloned human μ, κ, and δ opioid receptors, expressed in separate cell lines. IC50 values were obtained by nonlinear analysis of the data using GraphPad Prism version 3.00 for Windows (GraphPad Software, San Diego). Ki values were obtained by Cheng-Prusoff corrections of IC50 values.
(§2) The receptor binding method (DeHaven and DeHaven-Hudkins, 1998) was a modification of the method of Raynor et al. (1994). After dilution in buffer A and homogenization as before, membrane proteins (10-80 μg) in 250 μL were added to mixtures containing test compound and [^3H]diprenorphine (0.5 to 1.0 nM, 40,000 to 50,000 dpm) in 250 μL of buffer A in 96-well deep-well polystyrene titer plates (Beckman). […] The filters were rinsed 4 times with 1 mL of cold 50 mM Tris HCl, pH 7.8 and radioactivity remaining on the filters determined by scintillation spectroscopy. Nonspecific binding was determined by the minimum values of the titration curves and was confirmed by separate assay wells containing 10 μM naloxone. Ki values were determined by Cheng-Prusoff corrections of IC50 values derived from nonlinear regression fits of 12 point titration curves using GraphPad Prism® version 3.00 for Windows (GraphPad Software, San Diego, Calif.).
To determine the equilibrium dissociation constant for the inhibitors (Ki), radioligand bound (cpm) in the presence of various concentrations of test compounds was measured. The concentration to give half-maximal inhibition (EC50) of radioligand binding was determined from a best nonlinear regression fit to the following equation, […]
The potencies of the compounds were determined by testing the ability of a range of concentrations of each compound to inhibit the binding of the non-selective opioid antagonist, [^3H]diprenorphine, to the cloned human μ, κ, and δ opioid receptors, expressed in separate cell lines. […]

[3] = biological target: T2, cloned human κ opioid receptor (Homo sapiens, UniProt P41145); experiment: [3H]diprenorphine receptor binding, κ opioid receptor; settings: inhibition of [3H]diprenorphine binding, read-out: affinity (Ki value), kappa opioid receptor
T2 construct: expressed in transfected cells; host or cells: CHO cells (membrane preparations)
T2 sequence (P41145 whole entry): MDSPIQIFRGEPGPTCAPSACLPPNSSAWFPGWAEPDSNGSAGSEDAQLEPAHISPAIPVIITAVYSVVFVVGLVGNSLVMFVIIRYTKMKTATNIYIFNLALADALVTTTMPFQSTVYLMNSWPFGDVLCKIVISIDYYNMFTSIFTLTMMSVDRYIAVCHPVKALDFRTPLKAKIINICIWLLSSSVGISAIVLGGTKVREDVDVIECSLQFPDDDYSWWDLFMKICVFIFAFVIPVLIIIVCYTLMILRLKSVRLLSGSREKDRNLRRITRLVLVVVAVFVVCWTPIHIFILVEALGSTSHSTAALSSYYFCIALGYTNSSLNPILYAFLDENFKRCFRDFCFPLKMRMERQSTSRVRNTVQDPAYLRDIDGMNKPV
Procedure: as §1
as §2, with “(1994).” for “(1994). After dilution in buffer A and homogenization as before, membrane proteins (10-80 μg) in 250 μL were added to mixtures containing test compound and [^3H]diprenorphine (0.5 to 1.0 nM, 40,000 to 50,000 dpm) in 250 μL of buffer A in 96-well deep-well polystyrene titer plates (Beckman).”
(§3) To determine the equilibrium dissociation constant for the inhibitors (Ki), radioligand bound (cpm) in the presence of various concentrations of test compounds was measured. […]

[4] = biological target: T3, cloned human μ opioid receptor (Homo sapiens, UniProt P35372); experiment: [3H]diprenorphine receptor binding, μ opioid receptor; settings: inhibition of [3H]diprenorphine binding, read-out: affinity (Ki value), mu opioid receptor
T3 construct: expressed in transfected cells; host or cells: CHO cells (membrane preparations)
T3 sequence (P35372 whole entry): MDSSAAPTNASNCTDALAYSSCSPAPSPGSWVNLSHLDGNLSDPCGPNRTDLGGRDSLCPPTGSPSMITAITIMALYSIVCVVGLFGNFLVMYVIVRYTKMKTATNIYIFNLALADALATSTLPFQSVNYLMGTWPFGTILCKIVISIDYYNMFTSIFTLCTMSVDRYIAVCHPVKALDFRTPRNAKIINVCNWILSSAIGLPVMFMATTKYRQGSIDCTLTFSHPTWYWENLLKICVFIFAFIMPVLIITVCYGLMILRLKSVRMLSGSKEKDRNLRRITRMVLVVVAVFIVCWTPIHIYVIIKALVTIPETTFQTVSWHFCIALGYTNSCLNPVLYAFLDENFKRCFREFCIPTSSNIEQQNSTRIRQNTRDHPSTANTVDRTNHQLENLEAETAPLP
Procedure: as §1
as §2, with “(1994).” for “(1994). After dilution in buffer A and homogenization as before, membrane proteins (10-80 μg) in 250 μL were added to mixtures containing test compound and [^3H]diprenorphine (0.5 to 1.0 nM, 40,000 to 50,000 dpm) in 250 μL of buffer A in 96-well deep-well polystyrene titer plates (Beckman).”
as §3

Row | Structure (SMILES) | EC50 [1] | Ki [2] | Ki [3] | Ki [4]
1 | CCN(CC)C(=O)c1ccc(C2CC3(CCNCC3)Oc3ccc(F)cc32)c(O)c1 (single isomer, unassigned) [61A] | 16.8 nM | 0.59 nM | – | –
2 | CCN(CC)C(=O)c1ccc(C2CC3(CCNCC3)Oc3ccc(F)cc32)c(O)c1 (single isomer, unassigned) [61B] | 1280 nM | 75 nM | – | –
3 | CC(=O)c1ccc(C2=CC3(CCNCC3)Oc3ccccc32)cc1 [33M] | 287 nM | 9.7 nM | > 1000 nM | > 1000 nM
